Source: publication PMC11219871, “Epigenetic-based differentiation therapy for Acute Myeloid Leukemia” (Nature Communications, 2024)
Values joined by “and” are separate entries in the source; they are usually repeats but may differ in a detail not shown here. Identical values can stand only once.

Legend:
[1] = system: GF-D8; assay: Cell proliferation assay: GI50; format: cell-based
Procedure: (§1) Cell proliferation was analyzed using the CellTiter 96 Aqueous One Solution Cell Proliferation Assay (Promega, Madison, WI). This is a colorimetric method for determining the number of viable cells in proliferation. For the assay, suspension cells were cultured in triplicate at a density of 1 × 10^6 cells/mL in 96-well plates (100.000 cells/well, 100 µL/well), using only the 60 inner wells to avoid any border effects. After 48 h of treatment with different doses of each compound (0, 0.001, 0.01, 0.1, 0.2, 0.4, 0.6, 0.8, 1, 2, 3, 4, 5 and 10 µM), the plates were centrifuged at 800 g for 10 min followed by removal of the medium. Then, the cells were incubated with 100 μL/well of medium and 20 μL/well of CellTiter 96 Aqueous One Solution reagent for 1–3 h. The absorbance was recorded at 490 and 650 nm as reference wavelengths using 96-well plate readers until the absorbance of the control cells without treatment was approximately 0.8 AU. The background absorbance was measured in wells with only cell line medium and solution reagent. First, the average of the absorbance from the control wells was subtracted from all other absorbance values. Data were calculated as the percentage of total absorbance of treated cells/absorbance of non-treated cells. The GI50 values of the different compounds were determined using non-linear regression plots made with GraphPad Prism v5 software.

[2] = system: HEL; assay: Cell proliferation assay: GI50; format: cell-based; conditions: replicates 1-3
Procedure: as §1

[3] = system: KASUMI-1; assay: Cell proliferation assay: GI50; format: cell-based
Procedure: as §1

[4] = system: M-07e; assay: Cell proliferation assay: GI50; format: cell-based; conditions: replicates 1-3
Procedure: as §1

[5] = system: MONO-MAC-6; assay: Cell proliferation assay: GI50; format: cell-based
Procedure: as §1

[6] = system: NB-4; assay: Cell proliferation assay: GI50; format: cell-based
Procedure: as §1

[7] = system: OCI-AML2; assay: Cell proliferation assay: GI50; format: cell-based
Procedure: as §1

[8] = system: OCI-AML3; assay: Cell proliferation assay: GI50; format: cell-based
Procedure: as §1

[9] = system: TF-1; assay: Cell proliferation assay: GI50; format: cell-based
Procedure: as §1

[10] = system: THP-1; assay: Cell proliferation assay: GI50; format: cell-based
Procedure: as §1

[11] = system: UT-7; assay: Cell proliferation assay: GI50; format: cell-based
Procedure: as §1

[12] = system: MOLM-13; assay: Differentiation-apoptosis assay, CD11b / annexin-V / Sytox Green / myeloid markers flow cytometry; format: cell-based, human; design: Cell viability (%): concentration or dose not given beside the values; CD11b levels: unit not given here
Summary of the method: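 Cells washed in PBS, resuspended at 1 × 10^6 cells/mL in binding buffer and stained with APC-CD11b and FITC annexin-V for 15 min at room temperature in the dark, then read by flow cytometry. Other runs used a CD13/HLA-DR/CD14 antibody panel, 30 min staining, then red-cell lysis and washes.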

[13] = system: HL-60; assay: Cell-cycle analysis; format: cell-based, human; conditions: HL-60, treatment for 48 hours; replicates 1-3 (Figure 2F)
Procedure: (§2) […] Next, the cells were washed twice with PBS and resuspended in 0.2% Tween 20 in PBS and 0.5 mg/mL Rnase A (Ribonuclease A Type III-A from bovine pancreas, Cat No. R5125, Sigma), and then incubated for 30 min at 37 °C. Subsequently, the cells were stained with 25 μg/mL of propidium iodide (Cat No P4170, Sigma) and analyzed using a BD FACSCanto flow cytometer (Becton Dickinson, San Jose, CA, USA).

[14] = system: ML-2; assay: Cell-cycle analysis; format: cell-based, human; conditions: ML-2, treatment for 48 hours; replicates 1-3 (Figure 2F)
Procedure: as §2

[15] = system: MOLM-13; assay: Cell-cycle analysis; format: cell-based, human; conditions: MOLM-13, 48 hours
Procedure: as §2

[16] = system: MV4-11; assay: Cell-cycle analysis; format: cell-based, human; conditions: MV4-11, 48 hours
Procedure: as §2

[17] = MOLM-13, 48 h treatment, replicates 1-3 (Suppl. Fig. 5A)
[18] = MOLM-13, daily treatment, time 0 days
[19] = MOLM-13, daily treatment, time 2 days
[20] = MOLM-13, daily treatment, time 4 days
[21] = MOLM-13, daily treatment, time 6 days
[22] = MOLM-13, daily treatment, time 8 days

COc1cc2nc(-c3cc(C)oc3C)cc(NCC3CCN(c4ncc(C(=O)NO)cn4)CC3)c2cc1OC [CM-1758, 2-[4-[[[2-(2,5-dimethyl-3-furyl)-6,7-dimethoxy-4-quinolyl]amino]methyl] -1-piperidyl]pyrimidine-5-carbohydroxamic acid]
GI50 ([1]; 48 h, GF-D8, 48 h): > 10 µM
GI50 ([1]; GF-D8, replicates 1-3): > 10 µM
GI50 ([2]; Homo sapiens): 1.88 µM
GI50 [2]: 1.32 µM and 1.36 µM
GI50 ([3]; Homo sapiens, Kasumi 1, 48 h, KASUMI-1, 48 h): 0.578 µM
GI50 ([3]; Homo sapiens, Kasumi 1, KASUMI-1, replicates 1-3): 0.721 µM
GI50 ([3]; KASUMI-1, replicates 1-3): 0.635 µM and 0.379 µM
GI50 [4]: 1.32 µM and 1.99 µM and 1.19 µM
GI50 ([5]; Homo sapiens, MONO-MAC-6, 48 h): 0.617 µM
GI50 ([5]; Homo sapiens, MONO-MAC-6, MONO-MAC-6, replicates 1-3): 0.785 µM
GI50 ([5]; MONO-MAC-6, replicates 1-3): 0.6 µM and 0.466 µM
GI50 ([6]; Homo sapiens, NB-4, 48 h): 0.857 µM
GI50 ([6]; Homo sapiens, NB-4, NB-4, replicates 1-3): 0.987 µM
GI50 ([6]; NB-4, replicates 1-3): 0.714 µM and 0.87 µM
GI50 ([7]; Homo sapiens, OCI-AML2, 48 h): 0.773 µM
GI50 ([7]; Homo sapiens, OCI-AML2, OCI-AML2, replicates 1-3): 0.954 µM
GI50 ([7]; OCI-AML2, replicates 1-3): 0.712 µM and 0.655 µM
GI50 ([8]; Homo sapiens, OCI-AML-3, OCI-AML3, 48 h): > 10 µM
GI50 ([8]; Homo sapiens, OCI-AML-3, OCI-AML3, replicates 1-3): > 10 µM
GI50 ([8]; OCI-AML3, replicates 1-3): > 10 µM
GI50 ([9]; Homo sapiens, TF-1, TF-1, replicates 1-3): 2.96 µM
GI50 ([9]; TF-1, replicates 1-3): 2.58 µM and 2.69 µM
GI50 ([10]; Homo sapiens, THP-1, 48 h): > 10 µM
GI50 ([10]; Homo sapiens, THP-1, replicates 1-3): > 10 µM
GI50 ([10]; THP-1, replicates 1-3): > 10 µM
GI50 ([11]; Homo sapiens, UT7, UT-7, replicates 1-3): 3.69 µM
GI50 ([11]; UT-7, replicates 1-3): 3.94 µM and 3.67 µM
CD11b (%) ([12]; MOLM-13, 48 h): 93.0%
CD13 (%) ([12]; MOLM-13, 48 h): 54.8%
CD14 (%) ([12]; MOLM-13, 48 h): 35.6%
HLA-DR (%) ([12]; MOLM-13, 48 h): 27.9%
CD11b (%) [12, 17]: 93.5% and 87.6% and 86.0%
Cell viability (%) [12, 17]: 71.1% and 73.4% and 72.7%
differentiation level (CD11b) ([12]; MOLM-13, after 6–8 days of treatment): ~90%
CD11b levels ([12]; MOLM-13, daily treatment for 48 h, replicates 1-3 (Suppl. Fig. 9A)): 61.5 and 58.4 and 65.3
Annexin-V (%) [12, 18]: 4.46% and 6.55% and 4.89%
CD11b (%) [12, 18]: 6.62% and 4.5% and 6.9%
Annexin-V (%) [12, 19]: 11.4% and 10.2% and 9.87%
CD11b (%) [12, 19]: 73% and 68.5% and 65.7%
Annexin-V (%) [12, 20]: 23.3% and 19.7% and 17.2%
CD11b (%) [12, 20]: 83.3% and 80.2% and 78.3%
Annexin-V (%) [12, 21]: 23.9% and 24.2% and 20.6%
CD11b (%) [12, 21]: 89.9% and 85.1% and 83.1%
Annexin-V (%) [12, 22]: 29.4% and 27.5% and 25.4%
CD11b (%) [12, 22]: 91.9% and 90.1% and 92.4%
CD11b (%) ([12]; MOLM-13 cell line, replicates 1-3 (Figure 2A)): 70.54% and 69.2% and 63%
Cell number (%) G1 [13]: 79.37% and 83.97% and 81.85%
Cell number (%) G2/M [13]: 6.97% and 12.93% and 5.78%
Cell number (%) S [13]: 7.70% and 10.26% and 11.19%
Cell number (%) G1 [14]: 90.78% and 86.19% and 89.03%
Cell number (%) G2/M [14]: 6.71% and 3.95% and 9.23%
Cell number (%) S [14]: 5.26% and 4.58% and 4.26%
Cell number (%) G1 [15]: 94.79% and 97.36% and 97.43%
Cell number (%) G2/M [15]: 0.72% and 2.84% and 0.69%
Cell number (%) S [15]: 2.37% and 1.95% and 1.85%
Cell number (%) G1 [16]: 84.98% and 89.31% and 85.09%
Cell number (%) G2/M [16]: 8.40% and 10.00% and 4.67%
Cell number (%) S [16]: 5.02% and 6.02% and 6.51%

Cc1[nH]c2ccccc2c1CCNCc1ccc(/C=C/C(=O)NO)cc1 [Panobinostat, reference compound]
CD11b (%) [12, 17]: 39.6% and 32.7% and 32.0%
Cell viability (%) [12, 17]: 45.5% and 59.6% and 57.8%

O=C(CCCCCCC(=O)Nc1ccccc1)NO [Vorinostat, reference compound]
CD11b (%) [12, 17]: 37.1% and 43.8% and 41.2%
Cell viability (%) [12, 17]: 69.1% and 74.5% and 73.9%
